Structures are written as SMILES. Where two headings read alike, the source gives them in different places.

The text below walks through data of US9173935B2, “Phospholipid drug analogs” (Telormedix SA, priority 2010, dated 2015).

One series deals with CYP2E1 (Homo sapiens (Human), UniProt P05181). As to the kind of experiment: Fluorescent High Throughput P450 assay, CYP2E1. To be noted: substrate MFC; read-out: CYP2E1 IC50 (Mean ± S.D.). It counts as biochemical.
Series [1] has as its system Raw264.7 mouse macrophage cell line. In words: IL-6 and TNF-alpha secretion in Raw264.7 cells (ELISA). To be noted: Mus musculus, RAW264.7, 24 hours treatment, 7 doses. It counts as cell-based. The method, then:
EC50 values were determined for control and each drug candidate for IL-6 and TNF-alpha secretion. […] The cells were plated in 96 well plates and treated with TLR7 agonists for 24 hours in 7 doses. The conditioned media was removed after 24 hours for ELISA analyses. The cells were subsequently assayed for viability using the XTT assay according to the guidelines from the supplier. […] The experiment was performed in quadruplicate wells for each testing series, and the supernatant pooled and measured by ELISA in triplicates. Concentrations of IL-6 and TNF-alpha were determined by ELISA from R&D Systems using the Microsoft Excel Software. The results were analyzed in Graph Pad Prism in order to prepare dose-response curves, and for determination of EC50 values.
Background: ELISA stands for enzyme-linked immunosorbent assay.

In the next series the test system is PBMCs. As to the kind of experiment: IL-6 and TNF-alpha secretion in PBMCs from three donors (ELISA). The following applies: Homo sapiens, PBMC. Format: cell-based, human. As to the method:
EC50 values were determined for control and each drug candidate for IL-6 and TNF-alpha secretion. […] The cells were treated with TLR7 agonists for 24 hours in 7 doses. The conditioned media was removed for ELISA analyses for IL-6 and TNF-alpha, and cell survival determined by the XTT method according to the protocol from the supplier. […] Concentrations of IL-6 and TNF-alpha were determined by ELISA from R&D Systems using the Microsoft Excel Software. The results were analyzed in Graph Pad Prism in order to prepare dose-response curves, and for determination of EC50 values.

The test system of a further series is human PBMCs. In words: IL-6 secretion in human PBMCs, two batches of Compound A and SC12. It counts as cell-based. The following applies: Homo sapiens, PBMC, 24 h. As to the method: PBMCs were purified from two donors and plated into 96 well plates at 2×10^5 cells/well in RPMI media including human 2% heat inactivated AB serum, glutamine, Pen-strep and R-mercapto-ethanol. The cells were treated with TLR7 agonists for 24 h in 4 doses. The conditioned media was removed for ELISA analyses for IL-6, and the EC50 value determined for each compound and each batch.
All compounds were tested in four concentrations (10-1-0.1-0.01 micromolar).
Concentrations of IL-6 were determined by ELISA from R&D Systems using the Microsoft Excel software. The results were analyzed in Graph Pad Prism in order to prepare dose-response curves, and for determination of EC50 values.

A further series deals with whole blood. As to the kind of experiment: Cytokine secretion in human whole blood assay (ELISA). It counts as cell-based. As to the method:
A volume of approximately 55 mL fresh whole blood was drawn in heparinized Vacutainers from three healthy adult anonymous volunteers as described (J. A. Ida, Journal of Immunol Methods, 310, 2006, 86-99). […] Before drawing the blood, the compounds were added to 96 well round bottom plates in a 10× diluted sample at 20 ul. The compounds were diluted in RPMI media without serum but with antibiotics. Antibiotics were added at a 10× concentration. After drawing the blood, the whole blood sample was gently mixed to obtain a homogeneous sample, and 180 ul was added to each well.
After 6 hours and 24 hours incubation, plasma was removed for ELISA (IL-6, IL-10, IL-12p40 and IFN-alpha). ELISA was made at the 6 and 24 hours time point for all concentrations. After 24 hours incubation with selected compound concentrations, cells were analyzed for activation markers by FACS.
All compounds were setup in concentrations at 0-0.01-0.03-0.1-0.5-2.0-10.0 micromolar as the final concentration. Vehicle control was DMSO control, where we used the highest concentration used for the compounds. After addition of blood, all plates were gently agitated at 37° C. and 5% CO2 until harvest. The samples were removed after 6 or 24 hours incubation, and pooled into appropriate tubes (2 ml).
Concentrations of cytokines were determined by ELISA from R&D Systems. The results were analyzed in Graph Pad Prism in order to prepare dose-response
curves, and for determination of EC50 values. FACS analysis was made by using Becton-Dickinson FACSDiva software and subsequently illustrated in Graph Pad Prism.

The next series concerns HLA-DR+/CD20+ B cells. As to the kind of experiment: FACS analysis of B cell activation (CD40) in whole blood. It counts as cell-based, human. To be noted: 24 hours, 2 and 10 uM, three donors. As to the method:
(§1) A flow cytometric analysis was performed on whole blood from three donors after treatment with two compound concentrations for 24 h. The FACS analysis for donor 1 and donor 2 was made on another day than donor 3. The compound concentrations were as follows:
B cell activation: 2 and 10 uM
(§2) The FACS analysis was used to identify whether the test compounds could induce activation of B cells, and two different subsets of dendritic cells, namely the myeloid CD11c+/CD123− DCs and the plasmacytoid CD11c−/CD123+ DCs. The following markers were studied to identify the activation status of the different subsets:
(§3) The FACS staining was performed according to the manufacturer's instructions. Lysis of red blood cells was performed before FACS staining in order to minimize auto-florescence. To include as many B cells and DCs in the study as possible the FACS analyses were performed on 500,000 cells in total for each staining. A P1 gate was set only to include relevant cells on FSC vs. SSC (see FIGS. 12-15). The results of the individual analysis were present as Mean Fluorescence Intensity
The analysis of expression of the activation marker CD40 on B cells was made on double positive HLA-DR (MHC class II) (P4 gate) and CD20 cells (B cell marker) (P8 gate).
On the technique in general: A flow cytometer gives signals particle by particle.

Series [2] has as its system HLA-DR+/CD11c+/CD123- mDCs. In words: FACS analysis of myeloid DC activation in whole blood. It counts as cell-based, human. The following applies: 24 hours, 0.1 and 0.5 uM, three donors. The method, then:
as §1, §2, §3
The analysis of myeloid DCs was based on HLA-DR+/CD11c+/CD123-cells, thus all analyzed cells was included in the HLA-DR+ (P3) gate and CD11c+/CD123− (Q4) gate (see gates in FIGS. 13-15).

For series [3], the system named is receptors associated with pain-related syndromes (e.g. adenosine and sodium channel). As to the kind of experiment: Radioligand binding assay among 73 primary molecular targets. To be noted: SC12 at fixed concentration of 30 microM.
The test system of series [4] is AY-27 rat bladder cancer cell-line.
Where [5] appears, read: day 12, group 1 Imiquimod 0.1%, group 2 SC12 0.38%.

CYP2E1, sequence (P05181 whole entry, looked up): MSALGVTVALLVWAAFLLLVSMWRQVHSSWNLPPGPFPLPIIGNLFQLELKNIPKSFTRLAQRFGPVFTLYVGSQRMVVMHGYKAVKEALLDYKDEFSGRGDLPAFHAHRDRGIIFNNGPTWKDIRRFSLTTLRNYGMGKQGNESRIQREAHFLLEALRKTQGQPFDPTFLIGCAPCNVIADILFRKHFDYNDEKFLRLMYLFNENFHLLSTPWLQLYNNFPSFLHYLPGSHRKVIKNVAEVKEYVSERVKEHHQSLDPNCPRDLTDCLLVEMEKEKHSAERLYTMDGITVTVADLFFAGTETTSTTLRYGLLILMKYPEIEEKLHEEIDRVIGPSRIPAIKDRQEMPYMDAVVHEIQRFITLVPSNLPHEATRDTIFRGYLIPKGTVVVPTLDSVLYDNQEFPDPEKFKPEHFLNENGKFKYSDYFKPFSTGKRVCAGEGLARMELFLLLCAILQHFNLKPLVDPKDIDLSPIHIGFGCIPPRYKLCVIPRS
Description for CYP2E1: Inhibition of the P450 isoforms was measured in specific assays using specific substrates that become fluorescent upon CYP metabolism. Compounds, dissolved in ACN (acetonitrile) (CYP2E1, CYP2C8, CYP2B6, CYP3A5) or DMSO (all remaining isoforms), were tested in duplicate (n=2) in concentration-response curves (eight concentrations) in a 96-well plate containing incubation/NADPH regenerating buffer. Specific isoenzymes and substrates were added and incubated at 37° C. Reactions were terminated at different times, depending on the assays, and plates read on a Fluoroskan Ascent at the appropriate emission/excitation wavelengths. Concentration-response curves performed in duplicate for known inhibitors for each isoenzyme were tested in every assay as positive control.

One may read the IC50 as the midpoint of a concentration-inhibition curve. Consider `CCN(CC)C(=S)S` [DDTC, reference compound], for which the IC50 at CYP2E1 amounted to 850 ± 10 nM.

As to `CC(C)Cn1cnc2c(N)nc3ccccc3c21` [Imiquimod, reference compound], the EC50 in [1] (read-out: EC 50 IL 6) was found to be 2000 nM; in series [1] (read-out: EC 50 TNF-alpha), 2160 nM; with PBMCs (24 h, Donor 1, 24 hours, read-out: IL-6 secretion MC50) it was 6.35 µM; with PBMCs (24 h, Donor 1, 24 hours, read-out: TNFa secretion MC50), 3.07 µM; in the series on PBMCs (24 h, Donor 2, 24 hours, read-out: IL-6 secretion MC50) it was 1.99 µM; with PBMCs (24 h, Donor 2, 24 hours, read-out: TNFa secretion MC50), 24.9 µM. For the same molecule, the EC50 turned out to be 4.64 µM in the series on PBMCs (24 h, Donor 3, 24 hours, read-out: IL-6 secretion MC50); 22.4 µM with PBMCs (24 h, Donor 3, 24 hours, read-out: TNFa secretion MC50); 6.35 µM in the series with PBMCs (D1, first experiments on three donors, read-out: EC50 values, IL-6 secretion); 1.99 µM in the series on PBMCs (D2, first experiments on three donors, read-out: EC50 values, IL-6 secretion); 4.64 µM in the series on PBMCs (D3, first experiments on three donors, read-out: EC50 values, IL-6 secretion); 4.33 µM with PBMCs (average of three donors, read-out: IL-6 secretion Average EC50). The EC50 in the series on PBMCs (average of three donors, read-out: TNFa secretion Average EC50) stood at 16.8 µM; with human PBMCs (Donor 1, 4 doses) it was 18 µM; in the series with human PBMCs (Donor 2, 4 doses) it was 18.4 µM. In the series with whole blood (6 h incubation, up to 10.0 micromolar), the IL-6 secretion induced result was “low and insignificant amounts of IL-6”. Moreover, in the series with whole blood (6 hours incubation), the IFN-alpha secretion induced entry is recorded as “did not induce IFN-alpha secretion”. Further, the IL-10 production result in the series with whole blood (6 hours incubation) was “no IL-10 production was seen”. For the same molecule, the IL-12p40 secretion induced result with whole blood (6 hours incubation) is “did not induce IL-12p40 secretion”; in the series with whole blood (24 hours incubation), “did not induce IL-12p40”. Further, in the series on HLA-DR+/CD20+ B cells, the “CD40 expression (MFI) on B cells” value is given as “increased expression in all three donors”. In series [2], the “CCR7 expression on mDCs” value was “showed high CCR7 expression”. Moreover, the “CD80 expression on mDCs” value in series [2] is “weak expression of CD80 in donor 1 and 2”. The “Binding to receptors associated with pain-related syndromes” value in series [3] is given as “shown to bind”. The “Number of rats with a tumor positive bladder” value in [4] (day 12) is recorded as 9 of 14. The “Rats with pT2 Tumor, number (% of 14)” value in series [4] (setting [5]) was 9 (64.3%). Also, the “Tumor free rats, number (% of 14)” value in series [4] (setting [5]) is given as 5 (35.7%). In addition, in series [4] (day 12, intravesical 0.5 ml on day 2 and 5, group 1 Imiquimod 0.1%, group 2 SC12 0.38%), the “Mean weight of the rat bladders” value stood at 0.1201 grams. Also, in series [4] (group 1 Imiquimod 0.1%, group 2 SC12 0.38%), the “Mean number of tumors per rat bladder” value turned out to be 1.71. In addition, the Signs of toxicity result in series [4] (intravesical instillation day 2 and 5) is reported as “No signs of toxicity”. The molecule further returned a Mean invasion depth in [4] (tumor positive bladders, group 1 Imiquimod 0.1%, group 2 SC12 0.38%) of 1.3333 mm.
